Drawing on article PMC9174938, “1,4-Dihydropyridine as a Promising Scaffold for Novel Antimicrobials Against Helicobacter pylori” (Frontiers in Microbiology, 2022), this text covers Kd for six compounds.

This test addresses T1, HsrA (HP1043) (Helicobacter pylori, UniProt O25684).
T1 construct: gene HP_1043
T1 sequence (O25684 1-223): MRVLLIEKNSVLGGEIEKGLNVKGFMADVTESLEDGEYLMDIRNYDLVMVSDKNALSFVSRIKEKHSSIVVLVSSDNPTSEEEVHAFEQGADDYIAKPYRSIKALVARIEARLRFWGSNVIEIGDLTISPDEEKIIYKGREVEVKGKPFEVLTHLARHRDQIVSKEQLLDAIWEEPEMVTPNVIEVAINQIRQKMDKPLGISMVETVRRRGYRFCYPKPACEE
Kind of test: isothermal titration calorimetry. Type of test: binding. As to conditions: read-out: ITC^1 / Kd. The text has this: isothermal titration calorimetry on HsrA (HP1043)

Regarding `CC1=C(C(=O)OCC(C)C)C(c2cc([N+](=O)[O-])ccc2O)C2=C(CC(C)(C)CC2=O)N1` (stereo not drawn) [MD1], the Kd worked out at 3.5 µM. Turning to `CC1=C(C(=O)OCc2ccccc2)C(c2cc(Br)cc(Br)c2O)C2=C(CCC(C)(C)C2=O)N1` (stereo not drawn) [HM4], the Kd worked out at 4 µM. On to `CC1=C(C(=O)OCc2ccccc2)C(c2cc(Br)cc([N+](=O)[O-])c2O)C2=C(CCC(C)(C)C2=O)N1` (stereo not drawn) [HM6], for which the Kd was 5.4 µM.

For the compound `CC1=C(C(=O)OCC(C)C)C(c2cc(Br)ccc2O)C2=C(CC(C)(C)CC2=O)N1` (stereo not drawn) [MD6], the Kd is 25 µM.

On to `CC1=C(C(=O)OCC(C)C)C(c2cc(Br)cc([N+](=O)[O-])c2O)C2=C(CC(C)(C)CC2=O)N1` (stereo not drawn) [MD7], for which the Kd was 23 µM. Consider `CC1=C(C(=O)OCC(C)C)C(c2cccc([N+](=O)[O-])c2)C2=C(CC(C)(C)CC2=O)N1` (stereo not drawn) [MD2], for which the Kd stood at 16 µM.
